According to patent US12612360B2 (Sanofi, priority 2020, dated 2026):

Target: T1, ERα (Homo sapiens, UniProt P03372)
T1 construct: host or cells: MCF7
T1 sequence (P03372 1-595): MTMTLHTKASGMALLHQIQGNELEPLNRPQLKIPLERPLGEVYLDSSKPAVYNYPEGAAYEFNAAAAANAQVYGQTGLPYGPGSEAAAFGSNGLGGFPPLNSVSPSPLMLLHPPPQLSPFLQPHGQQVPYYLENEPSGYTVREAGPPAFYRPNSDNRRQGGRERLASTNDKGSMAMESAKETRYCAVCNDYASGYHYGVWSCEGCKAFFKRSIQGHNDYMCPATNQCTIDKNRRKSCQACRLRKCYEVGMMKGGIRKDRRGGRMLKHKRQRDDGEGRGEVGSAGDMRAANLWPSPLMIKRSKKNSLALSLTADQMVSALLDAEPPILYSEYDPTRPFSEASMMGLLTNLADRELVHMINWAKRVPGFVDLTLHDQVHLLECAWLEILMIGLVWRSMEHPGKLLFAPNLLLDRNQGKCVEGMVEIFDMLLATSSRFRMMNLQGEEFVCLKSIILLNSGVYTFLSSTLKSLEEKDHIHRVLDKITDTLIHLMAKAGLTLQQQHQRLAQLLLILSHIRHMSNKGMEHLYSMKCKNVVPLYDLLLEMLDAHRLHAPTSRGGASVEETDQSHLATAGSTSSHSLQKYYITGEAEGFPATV
Experiment: Estrogen receptor degradation activity: breast cancer cell ERα in cell western assay (MCF7 cells)
Assay type: cell-based
Settings: for % Degradation At 0.3 μM: 4 hours, relative to fulvestrant 0.1 μM positive control; for DC50: 4 hours post compound addition, concentration which degrades 50% of the estrogen receptor, read-out: Degradation IC50
Outline: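 In-cell western readout: ERα immunofluorescence (Alexa 488) normalised to DNA signal (Syto-64) after formalin fixation. Compounds dosed for 4 h on MCF7 cells in stripped-serum, phenol-red-free medium over nine 1:5 steps, 0.3 to […] final; fulvestrant 0.1 μM control. IC50 in nM for 50% ERα degradation.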

SMILES	% Degradation At 0.3 μM [%]	DC50 [nM]
O=C(O)c1ccc2c(c1)CCCC(c1ccc(F)cc1F)=C2c1ccc(C=C2CN(CCCF)C2)cc1 [Example 54, 8-(2,4-difluorophenyl)-9-(4-((1-(3-fluoropropyl)azetidin-3-ylidene)methyl)phenyl)-6,7-dihydro-5H-benzo[7]annulene-3-carboxylic acid]	93	0.4
O=C(O)c1ccc2c(c1)CCCC(c1cccc(F)c1F)=C2c1ccc(C=C2CN(CCCF)C2)cc1 [Example 55, 8-(2,3-difluorophenyl)-9-(4-((1-(3-fluoropropyl)azetidin-3-ylidene)methyl)phenyl)-6,7-dihydro-5H-benzo[7]annulene-3-carboxylic acid]	94	1
O=C(O)c1ccc2c(c1)CCCC(c1ccc(F)cc1F)=C2c1cc(F)c(C=C2CN(CCCF)C2)c(F)c1 [Example 59, 9-(3,5-difluoro-4-((1-(3-fluoropropyl)azetidin-3-ylidene)methyl)phenyl)-8-(2,4-difluorophenyl)-6,7-dihydro-5H-benzo[7]annulene-3-carboxylic acid]	93	0.4
O=C(O)c1ccc2c(c1)CCCC(C1CCOCC1)=C2c1ccc(C=C2CN(CCCF)C2)cc1 [Example 60, 9-(4-((1-(3-Fluoropropyl)azetidin-3-ylidene)methyl)phenyl)-8-(tetrahydro-2H-pyran-4-yl)-6,7-dihydro-5H-benzo[7]annulene-3-carboxylic acid]	91	2.3
Cc1cc(F)ccc1C1=C(c2cc(F)c(C=C3CN(CCCF)C3)cc2C)c2ccc(C(=O)O)cc2CCC1.Cl [Example 61, 8-(4-fluoro-2-methylphenyl)-9-(5-fluoro-4-((1-(3-fluoropropyl)azetidin-3-ylidene)methyl)-2-methylphenyl)-6,7-dihydro-5H-benzo[7]annulene-3-carboxylic acid hydrochloride]	93	0.8
Cc1cc(F)ccc1C1=C(c2c(C)cc(C=C3CN(CCCF)C3)cc2F)c2ccc(C(=O)O)cc2CCC1.Cl [Example 62, 8-(4-fluoro-2-methylphenyl)-9-(2-fluoro-4-((1-(3-fluoropropyl)azetidin-3-ylidene)methyl)-6-methylphenyl)-6,7-dihydro-5H-benzo[7]annulene-3-carboxylic acid hydrochloride]	99	0.5
Cc1c(C2=C(c3ccc(Cl)cc3Cl)CCCc3cc(C(=O)O)ccc32)ccc(C=C2CN(CCCF)C2)c1F [Example 63, 8-(2,4-dichlorophenyl)-9-(3-fluoro-4-((1-(3-fluoropropyl)azetidin-3-ylidene)methyl)-2-methylphenyl)-6,7-dihydro-5H-benzo[7]annulene-3-carboxylic acid]	90	0.7
Cc1cc(C=C2CN(CCCF)C2)cc(F)c1C1=C(c2ccc(Cl)cc2Cl)CCCc2cc(C(=O)O)ccc21.Cl [Example 66, 8-(2,4-dichlorophenyl)-9-(2-fluoro-4-((1-(3-fluoropropyl)azetidin-3-ylidene)methyl)-6-methylphenyl)-6,7-dihydro-5H-benzo[7]annulene-3-carboxylic acid hydrochloride]	98	0.4
Cc1cc(F)ccc1C1=C(c2ccc(C=C3CN(CCCF)C3)c(C)c2F)c2ccc(C(=O)O)cc2CCC1 [Example 67, 8-(4-fluoro-2-methylphenyl)-9-(2-fluoro-4-((1-(3-fluoropropyl)azetidin-3-ylidene)methyl)-3-methylphenyl)-6,7-dihydro-5H-benzo[7]annulene-3-carboxylic acid]	99	0.5
Cc1ccc(C2=C(c3ccc(C=C4CN(CCCF)C4)c(F)c3)c3ccc(C(=O)O)cc3CCC2)c(F)c1 [Example 69, 9-(3-fluoro-4-((1-(3-fluoropropyl)azetidin-3-ylidene)methyl)phenyl)-8-(2-fluoro-4-methylphenyl)-6,7-dihydro-5H-benzo[7]annulene-3-carboxylic acid]	94	0.5

The next molecules have a lower DC50 than those just listed; values first:

% Degradation At 0.3 μM [%]	DC50 [nM]	SMILES
97	0.3	O=C(O)c1ccc2c(c1)CCCC(c1ccc(F)cc1F)=C2c1c(F)cc(C=C2CN(CCCF)C2)cc1F [Example 52, 9-(2,6-difluoro-4-((1-(3-fluoropropyl)azetidin-3-ylidene)methyl)phenyl)-8-(2,4-difluorophenyl)-6,7-dihydro-5H-benzo[7]annulene-3-carboxylic acid]
94	0.3	O=C(O)c1ccc2c(c1)CCCC(c1ccc(F)cc1F)=C2c1ccc(C=C2CN(CCCF)C2)c(F)c1 [Example 53, 8-(2,4-difluorophenyl)-9-(3-fluoro-4-((1-(3-fluoropropyl)azetidin-3-ylidene)methyl)phenyl)-6,7-dihydro-5H-benzo[7]annulene-3-carboxylic acid]
93	0.3	Cc1cc(C2=C(c3ccc(Cl)cc3Cl)CCCc3cc(C(=O)O)ccc32)ccc1C=C1CN(CCCF)C1 [Example 64, 8-(2,4-dichlorophenyl)-9-(4-((1-(3-fluoropropyl)azetidin-3-ylidene)methyl)-3-methylphenyl)-6,7-dihydro-5H-benzo[7]annulene-3-carboxylic acid]
95	0.3	Cc1cc(F)ccc1C1=C(c2cc(F)c(C=C3CN(CCCF)C3)cc2F)c2ccc(C(=O)O)cc2CCC1.Cl [Example 65, 9-(2,5-difluoro-4-((1-(3-fluoropropyl)azetidin-3-ylidene)methyl)phenyl)-8-(4-fluoro-2-methylphenyl)-6,7-dihydro-5H-benzo[7]annulene-3-carboxylic acid hydrochloride]
96	0.3	Cc1cc(F)ccc1C1=C(c2c(F)cc(C=C3CN(CCCF)C3)cc2F)c2ccc(C(=O)O)cc2CCC1 [Example 68]
93	0.2	O=C(O)c1ccc2c(c1)CCCC(c1cccc(C(F)(F)F)c1F)=C2c1ccc(C=C2CN(CCCF)C2)cc1 [Example 56, 8-(2-fluoro-3-(trifluoromethyl)phenyl)-9-(4-((1-(3-fluoropropyl)azetidin-3-ylidene)methyl)phenyl)-6,7-dihydro-5H-benzo[7]annulene-3-carboxylic acid]
93	0.2	Cc1ccc(C2=C(c3ccc(C=C4CN(CCCF)C4)cc3)c3ccc(C(=O)O)cc3CCC2)c(F)c1 [Example 57, 8-(2-fluoro-4-methylphenyl)-9-(4-((1-(3-fluoropropyl)azetidin-3-ylidene)methyl)phenyl)-6,7-dihydro-5H-benzo[7]annulene-3-carboxylic acid]
99	0.2	O=C(O)c1ccc2c(c1)CCCC(c1ccc(Cl)cc1F)=C2c1ccc(C=C2CN(CCCF)C2)cc1 [Example 58, 8-(4-chloro-2-fluorophenyl)-9-(4-((1-(3-fluoropropyl)azetidin-3-ylidene)methyl)phenyl)-6,7-dihydro-5H-benzo[7]annulene-3-carboxylic acid]
101	0.2	Cc1ccc(C2=C(c3ccc(C=C4CN(CCCF)C4)cc3)c3ccc(C(=O)O)cc3CCC2)c(C(F)(F)F)c1 [Example 70, 9-(4-((1-(3-fluoropropyl)azetidin-3-ylidene)methyl)phenyl)-8-(4-methyl-2-(trifluoromethyl)phenyl)-6,7-dihydro-5H-benzo[7]annulene-3-carboxylic acid]
